Measured values reported in patent US9932329B2, “Benzimidazole derivatives as RLK and ITK inhibitors” (Principia Biopharma, Inc., priority 2014, dated 2018).
Where a name gives a salt, the structure may show the parent alone. Read-outs that look alike come from different tables or passages of the source.

Key:
human PBMCs = assay: cells; conditions: PBMC, read-out: CD3/CD28-induced IL-2 IC50
RLK = RLK (Homo sapiens (Human), UniProt P42681); assay: Inhibition of RLK enzymatic activity, Caliper assay; assay type: biochemical
Sequence of RLK (P42681 whole entry): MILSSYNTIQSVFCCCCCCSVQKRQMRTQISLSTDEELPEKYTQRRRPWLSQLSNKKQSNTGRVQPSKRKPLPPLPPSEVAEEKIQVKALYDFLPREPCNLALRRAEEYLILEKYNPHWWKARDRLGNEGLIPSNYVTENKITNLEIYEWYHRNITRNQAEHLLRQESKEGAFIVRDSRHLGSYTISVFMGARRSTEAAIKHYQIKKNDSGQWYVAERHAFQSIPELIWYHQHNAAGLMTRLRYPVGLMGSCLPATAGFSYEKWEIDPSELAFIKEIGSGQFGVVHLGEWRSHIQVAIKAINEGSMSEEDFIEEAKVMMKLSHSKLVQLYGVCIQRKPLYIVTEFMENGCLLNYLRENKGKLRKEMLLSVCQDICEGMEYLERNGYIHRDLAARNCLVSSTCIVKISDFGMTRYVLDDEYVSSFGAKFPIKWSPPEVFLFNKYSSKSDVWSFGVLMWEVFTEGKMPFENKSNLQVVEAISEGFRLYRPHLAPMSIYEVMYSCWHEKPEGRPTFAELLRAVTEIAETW

NFAT-bla Jurkat cells = assay: cells; conditions: Homo sapiens, read-out: TCR-induced NFAT IC50
[1] = tested on: cell types that do not express ITK and RLK; assay: BioMap cell screening panel, cell types that do not express ITK and RLK; assay type: cell-based; conditions: data not shown
Text: (§1) FIG. 1 depicts the inhibition of intracellular expression of IL-17 in the presence of an ITK/RLK inhibitor (Tool Compound A) by a population of T-cells activated by anti-CD3/anti-CD-28. FIG. 2 depicts results from a BioMap® cell screening panel (performed by BioSeek, Inc., South San Francisco, Calif.) is a set of cell-based assays used to probe the cellular potency and selectivity of inhibitory compounds. A variety of cell culture and co-culture systems are stimulated with a range of molecules. Biomarker readouts are pathway activities in the culture systems. The biomarker readouts measured in each system are indicated along the x-axis. […] Three concentrations of Compound A were tested for the ability to modulate the various readouts. […] The TH2 system consists of primary human umbilical vein endothelial cells co-cultured with 14-day TH2 polarized CD4 T-cell blasts stimulated with TCR and IL-2.

human Th17 cells = assay: Intracellular IL-17 expression by purified human Th17 cells after anti-CD3/anti-CD28 activation; assay type: cell-based; conditions: single dose of 500 nM, 1 h exposure, 12 h activation, FACS
Text: A population of T cells enhanced in Th17 cells was produced using the EasySep™ human Th17 enrichment kit from StemCell Technologies. […]

[2] = tested on: human PBMC and B cell co-culture; assay: IL-17A secretion in PBMC-B cell co-cultures (BioMap BT system); assay type: cell-based
Text: as §1
(§2) Tool Compound A was tested in T cell co-cultures consisting of either a mixture of human primary peripheral blood mononuclear cells (PBMC) and B cells or human primary differentiated Th2 cells and human umbilical vein endothelial cells. The PBMC-B cell co-cultures were stimulated with TCR activators anti-CD3 and anti-CD28 and anti-IgM antibodies for 84 h to simulate B cell activation driven by T cell activation. Tool Compound A was tested at 10 μM, 1 μM, 100 nM and 10 nM. […]

murine Th17 cells = assay: Differentiation of murine Th17 cells from CD4+ cells of TCR transgenic mice; assay type: cell-based, mouse; conditions: for IC50: Mus musculus, 72 h
Procedure: CD4+ cells from TCR transgenic mice (B10.A 5C.C7 TCR Tg (Rag-2^−/−)) were grown for three days in the presence of culture conditions that support the differentiation of the T cell population to Th17 cells (optimized concentrations of IL-6, TGF-β, IL-1β, IL-23, anti-mouse IL-2, anti-mouse IFN-γ, and anti-mouse IL-4 mAb). This was done in the presence of varying concentrations of Tool Compound A in the cell culture medium during the differentiation procedure. The cells were then activated with a combination of phorbol 12-myristate 13-acetate and ionomycin and the expression of the Th17 specific transcription factor RORγt and intracellular IL-17A was measured by flow cytometry.

[3] = tested on: human Th2 cell-HUVEC co-culture; assay: IL-17A secretion in primary Th2 cell-HUVEC co-cultures (BioMap TH2 system); assay type: cell-based; conditions: stimulated by TCR activation and interleukin-2
Text: as §1, §2

[4] = ATP at Km (100 μM), 15 min pre-incubation, 3 h reaction

Structure (SMILES) | IC50 (human PBMCs) | IC50 (RLK; [4]) | IC50 (NFAT-bla Jurkat cells) | also measured
C=CC(=O)N1CCC[C@@H]1Cn1c(NC(=O)c2ccc(-c3cnco3)s2)nc2cc(CNCC3CC3)ccc21 [Example 9, (R)-N-(1-((1-acryloylpyrrolidin-2-yl)methyl)-5-(((cyclopropylmethyl)amino)methyl)-1H-benzo[d]imidazol-2-yl)-5-(oxazol-5-yl)thiophene-2-carboxamide] | 4 nM | 0.3 nM | 4 nM | –
CC(C)(C)C=C(C#N)C(=O)N1CCC[C@@H]1Cn1c(NC(=O)c2ccc(-c3cnco3)s2)nc2cc(CNCC3CC3)ccc21 [Example 2, (R)-N-(1-((1-(2-cyano-4,4-dimethylpent-2-enoyl)pyrrolidin-2-yl)methyl)-5-(((cyclopropyl-methyl)-amino)methyl)-1H-benzo[d]imidazol-2-yl)-5-(oxazol-5-yl)thiophene-2-carboxamide formate] | 81 nM | – | 536 nM | –
C=CC(=O)N1CCC[C@@H]1Cn1c(NC(=O)c2ccc(-c3cnco3)s2)nc2cc(CN[C@H](C)CO)ccc21 [Example 13, N-(1-(((R)-1-acryloylpyrrolidin-2-yl)methyl)-5-((((R)-1-hydroxypropan-2-yl)amino)methyl)-1H-benzo[d]imidazol-2-yl)-5-(oxazol-5-yl)thiophene-2-carboxamide] | – | 0.3 nM | – | –
C=CC(=O)N1CCC[C@@H]1Cn1c(NC(=O)c2ccc(C(F)F)s2)nc2cc(CN[C@@H](C)C(C)(C)C)ccc21 [PRN694] | – | – | – | Inhibitory activity in cell types that do not express ITK and RLK [1]: essentially no inhibitory activity
C[C@H](NCc1ccc2c(c1)nc(NC(=O)c1ccc(C(F)F)s1)n2C[C@H]1CCCN1C(=O)C(C#N)=CC(C)(C)C)C(C)(C)C [Tool Compound A, N-(1-(((R)-1-(2-cyano-4,4-dimethylpent-2-enoyl)pyrrolidin-2-yl)methyl)-5-((((S)-3,3-dimethylbutan-2-yl)amino)methyl)-1H-benzo[d]imidazol-2-yl)-5-(difluoromethyl)thiophene-2-carboxamide] | – | – | – | TCR-induced intracellular expression of IL-17 (human Th17 cells): completely blocked; IL-17A secretion into culture supernatant ([2]; 10 μM, 1 μM, 100 nM and 10 nM, anti-CD3, anti-CD28 and anti-IgM for 84 h): inhibited in a dose dependent manner; Release of soluble proinflammatory cytokines IL17A, IL17F and TNFα by activated T cells ([2]; BioMap panel, three concentrations): inhibits release; IC50 (murine Th17 cells; three days under Th17 conditions, PMA/ionomycin, flow cytometry, read-out: Midpoint of dose response - Th17: Intracellular cytokine expression (IL-17)): < 25 nM; IC50 (murine Th17 cells; three days under Th17 conditions, PMA/ionomycin, flow cytometry, read-out: Midpoint of dose response - Th17: Transcription factor expression (RORγt)): ~25 nM; IC50 (murine Th17 cells; three days under Th17 differentiation conditions, read-out: Midpoint of dose response - Th17: Proliferation): < 25 nM; Concentration that blocks expression of Th17 differentiation markers (RORγt and IL-17A) (murine Th17 cells; cultures polarizing murine T cells into Th17): ≤ 25 nM; IC50 (RLK): 1 nM; IL-17A secretion [3]: inhibited IL-17A secretion in a dose dependent manner
C=CC(=O)N1CCC[C@@H]1Cn1c(NC(=O)c2ccc(-c3cnco3)s2)nc2cc(CN[C@H](CO)C(C)(C)C)ccc21 [Example 10, N-(1-(((R)-1-acryloylpyrrolidin-2-yl)methyl)-5-((((S)-1-hydroxy-3,3-dimethylbutan-2-yl)-amino)methyl)-1H-benzo[d]imidazol-2-yl)-5-(oxazol-5-yl)thiophene-2-carboxamide] | – | 0.2 nM | – | –
COCC(C)NCc1ccc2c(c1)nc(NC(=O)c1ccc(-c3cnco3)s1)n2C[C@H]1CCCN1C(=O)C(C#N)=CC(C)(C)C (stereo partly drawn) [Example 7, N-1-(((R)-1-(2-cyano-4,4-dimethylpent-2-enoyl)pyrrolidin-2-yl)methyl)-5-((((R)-1-methoxypropan-2-yl)amino)methyl)-1H-benzo[d]imidazol-2-yl)-5-(oxazol-5-yl)-thiophene-2-carboxamide formate] | 109 nM | 2.1 nM | 101 nM | –
C=CC(=O)N1CCC[C@@H]1Cn1c(NC(=O)c2ccc(-c3cnco3)s2)nc2cc(CN[C@@H](CO)C(C)(C)C)ccc21 [Example 11, N-(1-(((R)-1-acryloylpyrrolidin-2-yl)methyl)-5-((((R)-1-hydroxy-3,3-dimethylbutan-2-yl)-amino)-methyl)-1H-benzo[d]imidazol-2-yl)-5-(oxazol-5-yl)thiophene-2-carboxamide] | – | 0.5 nM | – | –
C[C@H](NCc1ccc2c(c1)nc(NC(=O)c1ccc(-c3cnco3)s1)n2C[C@H]1CCCN1C(=O)C(C#N)=CC(C)(C)C)C(C)(C)C [Example 15, N-(1-(((R)-1-(2-cyano-4,4-dimethylpent-2-enoyl)pyrrolidin-2-yl)methyl)-5-((((S)-3,3-dimethyl-butan-2-yl)amino)methyl)-1H-benzo[d]imidazol-2-yl)-5-(oxazol-5-yl)thiophene-2-carboxamide] | – | 1.2 nM | – | –
CC(C)(C)C=C(C#N)C(=O)N1CCC[C@@H]1Cn1c(NC(=O)c2ccc(-c3cnco3)s2)nc2cc(CO)ccc21 [Example 1, (R)-N-(1-((1-(2-cyano-4,4-dimethylpent-2-enoyl)pyrrolidin-2-yl)methyl)-5-(hydroxymethyl)-1H-benzo[d]imidazol-2-yl)-5-(oxazol-5-yl)thiophene-2-carboxamide] | 71 nM | 1.2 nM | 50 nM | –
C=CC(=O)N1CCC[C@@H]1Cn1c(NC(=O)c2ccc(-c3cnco3)s2)nc2cc(CN[C@@H](C)CO)ccc21 [Example 12, N-(1-(((R)-1-acryloylpyrrolidin-2-yl)methyl)-5-((((S)-1-hydroxypropan-2-yl)amino)methyl)-1H-benzo[d]imidazol-2-yl)-5-(oxazol-5-yl)thiophene-2-carboxamide] | 4 nM | 0.3 nM | 5 nM | –
